From US20250298040A1, “MEASUREMENT OF REACTIVE OXYGEN SPECIES TO ASSESS RED BLOOD CELL QUALITY” (UNIVERSITY OF MARYLAND, BALTIMORE, priority 2022, published 2025)

Key:
[1] = system: RBCs from FVB and B6 mice; experiment: CMH oxidation in refrigerator-stored murine RBCs (FVB vs B6), EPR; type: cell-based, mouse
Description: (§1) Measurement of CMH oxidation by EPR spectroscopy. All samples for EPR measurement contained 1 mM CMH. Other reagents, when used, were at the following concentrations: xanthine oxidase (XO), 0.03 U/mL; superoxide dismutase (SOD), 5 μM; hypoxanthine (HX), 0.5 mM; hydrogen peroxide (H2O2), 1 mM. Cell-free measurements were made in phosphate-buffered saline (PBS) containing 1 mM diethylenetriaminepentaacetic acid (DTPA). For measurements on RBCs, each sample was made by mixing 2 μL of 50 mM CMH·HCl stock solution with 98 μL of RBC suspension (˜40% hematocrit) in Citrate Phosphate Dextrose Adenine (CPDA-1, Sigma-Aldrich, St. Louis, MO). Time zero (t=0) is the time at which CMH is mixed into the sample. The amplitude (h) of the center peak of the CM· nitroxide EPR spectrum was converted into concentration (C in μM) by using a calibration equation, which for this example was C=(h−0.03308)/0.06461, determined using a series of standard samples.
Murine blood collection and storage. Mouse blood collections were approved by the University of Maryland, Baltimore Institutional Animal Care and Use Committee (IACUC) (protocol #0520008). Processed RBCs from two different mouse strains (C57BL/6J or B6 for short, Jackson Laboratory, Barr Harbor, ME and FVB, Charles Rivers, Worcester, MA) were evaluated in this study. Whole blood (approximately 800-1000 μL per mouse) was collected by cardiac puncture using a 21 G×1 inch needle and 1 mL syringe containing Citrate Phosphate Dextrose solution (CPD) from n=15 B6 and n=15 FVB mice. Blood was pooled within the strains in 15 mL falcon tubes and centrifuged at 750×g for 5 minutes. The plasma and buffy coat were removed. Each aliquot was washed 3 times in 5 mL of phosphate-buffered saline containing 10 mM glucose (PBS-G) with gentle swirling for 3 minutes followed by centrifugation at 750×g for 5 minutes. After the final wash, PBS-G was removed and CPDA-1 (840 μL, 14% of the total volume) was added to RBCs (approximately 6 mL of packed RBCs). Hematocrits were approximately 70% across storage tubes. Finally, preparations were split into 12 equal volumes (500 μL) and stored in 1.7 mL Eppendorf tubes (n=3 per mouse strain per time point) in a refrigerator at 4-6° C. Measurements were made on day 1 (immediately after processing) and then on days 2, 4 and 8 after processing such that measurements were made from independent tubes and not a single pooled blood tube.
Data analysis and presentation. Least-squares curve fitting and statistical analysis were performed using OriginPro software (OriginLab Corp., Northampton, MA). […] Difference between the two strains on the same day was assessed by t-test; within-strain differences over multiple days of storage were assessed through ANOVA.

RBC = details: cited from earlier work
RBCs [2] = experiment: Complete blood count RBC parameters following CMH exposure; type: cell-based, human; details: CMH 0.1, 0.3, 1.0, 3.0 and 10 mM, 10 minutes, ambient temperature, vs vehicle ddH2O
Description: (§2) Donor blood. Blood was obtained from healthy volunteers under informed consent. All human subject research was approved by the University of Maryland, Baltimore Institutional Review Board under Protocol #-HP-00092436.
(§3) CMH Incubation. Whole blood was centrifuged at 900 g/2500 rpm for 10 minutes to separate RBC from plasma/buffy coat. Plasma and buffy coat were removed, and RBCs were washed five times with 0.5 ml volumes of isotonic phosphate buffered saline containing 5 mM glucose. After each wash, supernatant and residual buffy coat was removed. After the 5th wash the RBC pellet was mixed with the preservative solution, CPDA-1 in an 85:15 ratio (150 μL CPDA-1 for a total volume of 1 mL). This step was performed to approximate the preparation of packed RBCs for refrigerator storage. CMH was diluted with double deionized H2O (ddH2O) to make stock solutions ranging from 400-4 mM. 10 μL of stock CMH solution or ddH2O was added to 390 μL of RBC/CPDA-1 suspensions, mixed gently but thoroughly and incubated at ambient temperature for 10 minutes. The concentrations tested were as follows: 0.1, 0.3, 1.0, 3.0 and 10 mM. This step was performed to approximate the preparation time needed for assaying superoxide in donor RBCs at the point of collection or in a blood bank setting. After 10 minutes of incubation, complete blood count, shear stress deformability, oxygen equilibrium (oxygen saturation and desaturation) was measured as 3 technical replicates for all samples. Fixation of RBCs was performed for scanning electron microscopy.
Total Blood cell count. Total blood cell count was quantified using ABX Pentra 60 C+ Hematology analyzer (HORIBA Instruments Inc., Kyoto, Japan). Briefly, 60 μL of whole blood was used for the analyses.

[3] = CMH incubation with hydrogen peroxide, cell-free EPR
Description: as §1
(§4) Hydroxylamine molecular probe oxidation by O2^·−. The enzyme xanthine oxidase (XO) oxidizes its substrate hypoxanthine and generates O2^·− in the process. […] The first and last EPR spectrum of a representative data set are plotted as the inset at the top left, showing growth of the EPR spectrum as reaction proceeds. Superoxide dismutase (SOD) destroys O2^·− in a rapid enzymatic process, thus preventing it from reacting with CMH. […]

RBCs [4] = experiment: Shear stress ektacytometry of RBCs exposed to CMH; type: cell-based, human; details: CMH 0.1, 0.3, 1.0, 3.0 and 10 mM; shear stress 5.33 Pa and 30 Pa; vs vehicle, P>0.05
Description: as §2
as §3, with “10 μL of stock CMH solution or ddH2O was added to 390 μL of RBC/CPDA-1 suspensions, mixed gently but thoroughly and incubated at ambient temperature for 10 minutes. The concentrations tested were as follows: 0.1, 0.3, 1.0, 3.0 and 10 mM. This step was performed to approximate the preparation time needed for assaying superoxide in donor RBCs at the point of collection or in a blood bank setting.” left out, “Fixation of RBCs was performed for scanning electron microscopy.” left out
Measurements of RBC deformability. RBC deformability was measured by ektacytometry, using the laser-assisted optical rotational cell analyzer (LORCA MaxSis, Mechatronics, Netherlands) at 37° C. […] RBC deformability was measured by applying 9 different shear stresses ([…]). […]

human RBCs = experiment: CMH oxidation in human RBCs stored under normoxic vs hypoxic conditions, EPR; type: cell-based; details: entire duration of storage, p<9.31×10^−4
Description: as §1
Distinguishing between normoxic and hypoxic storage conditions. Hydroxylamine molecular probe, e.g., CMH, measurements can be used to distinguish human RBCs stored under normoxic and hypoxic conditions, as shown in FIG. 3B. Duplicate samples of human RBCs were stored 1) under normoxic conditions (equilibrated with air), and 2) under hypoxic conditions (equilibrated with low-oxygen atmosphere) and tested periodically with CMH. […]

[5] = system: RBCs from healthy donors and donors with sickle-cell disease; experiment: CMH oxidation in RBCs from healthy donors vs donors with sickle-cell disease, EPR; type: cell-based, human; details: SCD n=19, Healthy n=6, p=1.26×10^−6
Description: as §1
Distinguishing between RBCs from healthy subjects and patients with sickle-cell disease. Hydroxylamine molecular probe, e.g., CMH, measurements can be used to differentiate between RBCs from healthy donors and donors with sickle-cell disease, as shown in FIG. 4. RBCs from screened healthy donors (Healthy, n=6) and donors that have sickle-cell disease (SCD, n=19) were tested with CMH. […] Error bars represent s.e.m.

RBCs [6] = experiment: Oxygen equilibrium (P50) of RBCs exposed to CMH; type: cell-based, human; details: CMH up to 10 mM (10-fold the intended assay concentration)
Description: as §2
as §3, with “10 μL of stock CMH solution or ddH2O was added to 390 μL of RBC/CPDA-1 suspensions, mixed gently but thoroughly and incubated at ambient temperature for 10 minutes. The concentrations tested were as follows: 0.1, 0.3, 1.0, 3.0 and 10 mM. This step was performed to approximate the preparation time needed for assaying superoxide in donor RBCs at the point of collection or in a blood bank setting.” left out, “Fixation of RBCs was performed for scanning electron microscopy.” left out
Measurement of Oxygen equilibrium (p50). […] The P50 value was determined using an automated blood oxygen analyzer (Hemox, Model B, TCS Scientific) following the manufacturer's protocol. […]

RBCs [7] = experiment: Scanning electron microscopy of RBCs exposed to CMH; type: cell-based, human; details: CMH 0.1, 0.3, 1.0, 3.0 and 10 mM, 10 minutes, ambient temperature, vs vehicle
Description: as §2
as §3, with “This step was performed to approximate the preparation time needed for assaying superoxide in donor RBCs at the point of collection or in a blood bank setting.” left out, “Fixation of RBCs was performed for scanning electron microscopy.” left out

[8] = CMH oxidation by O2^·− from xanthine oxidase/hypoxanthine, cell-free EPR; details: 1 mM CMH
Description: as §1, §4

SMILES	mean [CM·] higher in RBCs from FVB mice than B6 ([1]; at the time of CMH addition, each day of measurement) [µM]	membrane permeance (RBC)	rate of CM· generation in B6 RBCs ([1]; B6 mouse RBCs, day 2 of storage, 1 mM CMH, slightly above buffer control CPDA-1)	rate of CM· generation in FVB RBCs ([1]; FVB mouse RBCs vs B6, day 2 of storage, 1 mM CMH)	mean rate of CMH to CM· oxidation, FVB versus B6 murine RBCs ([1]; days 1, 2, 4 and 8 of storage) [fold]	% hematocrit (RBCs [2])	Mean corpuscular hemoglobin (RBCs [2])	Mean corpuscular volume (RBCs [2])	RBC count (RBCs [2])	mean corpuscular hemoglobin concentration (RBCs [2])	total hemoglobin (RBCs [2])	generation of CM· on incubation with H2O2 ([3]; 1 mM CMH, 1 mM H2O2, PBS with 1 mM DTPA)	selectivity of CMH for O2^·− over H2O2 ([3]; 1 mM H2O2)	RBC elongation index (RBCs [4])	rate of CMH oxidation, normoxic vs hypoxic stored RBCs (human RBCs)	rate of CMH oxidation, SCD RBCs vs Healthy RBCs [5]	oxygen equilibrium curves / P50 (hemoglobin allostery) (RBCs [6])	RBC membrane/morphology changes by SEM (RBCs [7])	reaction of CMH with O2^·− (CM· formation quantified by EPR) ([8]; XO 0.03 U/mL, hypoxanthine 0.5 mM, PBS with 1 mM DTPA)	production of CM· in presence of SOD ([8]; XO + hypoxanthine + SOD 5 μM)
COC(=O)C1CC(C)(C)N([O])C1(C)C (stereo not drawn) [CM·]	~9	membrane-permeant																		
COC(=O)C1CC(C)(C)N(O)C1(C)C (stereo not drawn) [CMH, 1-hydroxy-3-methoxycarbonyl-2,2,5,5-tetramethylpyrrolidine]		membrane-permeant	low rate	much higher rate	3	no CMH concentration dependent differences	no CMH concentration dependent differences	no CMH concentration dependent differences	no CMH concentration dependent differences	no CMH concentration dependent differences	no CMH concentration dependent differences	negligible generation of CM·	high selectivity	do not change the elongation indices	much higher rate	much higher rates	does not impart aberrant hemoglobin allostery	no remarkable changes	converts it to CM·	negligible production of CM·
